Reference: US9090600B2, “Fungicidal 4-substituted-3-{phenyl[(heterocyclylmethoxy)imino]methyl}-1,2,4-oxadizol-5(4H)-one derivatives” (BAYER INTELLECTUAL PROPERTY GMBH, priority 2011, dated 2015)
Read-outs that look alike come from different tables or passages of the source. Marks after values point to notes of the source that are not given here.

Assays:
Phytophthora infestans [1] = assay type: in vivo; conditions: tomato, preventive spray, 100 ppm of active ingredient, evaluated 7 days after inoculation
Plasmopara viticola = experiment: Plasmopara test (grapevines)/preventive; assay type: in vivo; conditions: preventive spray, 10 ppm of active ingredient, evaluated 6 days after inoculation
Summary of the method: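 Young grapevines sprayed preventively with compound formulated in acetone/dimethylacetamide with emulsifier, diluted in water, then inoculated with P. viticola spores after drying. Held 1 day at ~20 °C/100% RH, 4 days in greenhouse at ~21 °C/~90% RH, then misted for 1 day. Efficacy scored 6 days post-inoculation (0% = untreated control, 100% = no disease).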

Pythium aphanidermatum = experiment: Pythium test (cucumber)/seed treatment; assay type: in vivo; conditions: 10 g/dt seed of active ingredient, emerged seedlings after 7 days
Description: (§1) The test is performed under greenhouse conditions.
Cucumber seeds, treated with the active compound or compound combinations, solved in N-methyl-2-pyrrolidon and diluted with water to the desired dosages, were sown in 6*6 cm pots containing 4 cm of a 1:1 mix of steamed field soil and sand.
Perlite was incubated with mycelium fragments of Pythium aphanidermatum. 5 ml of infected perlite was scattered between the treated […] seeds. Seeds were then covered by the 1:1 mix of steamed field soil and sand. Pots were incubated in the greenhouse 7 days at 24° C. and 80% relative humidity. Assessment consisted of counting of emerged seedlings. 0% means an efficacy which corresponds to that of the control, while an efficacy of 100% means that all seedlings have emerged.

Pythium ultimum = experiment: Pythium test (cotton)/seed treatment; assay type: in vivo; conditions: 10 g/dt seed of active ingredient, emerged seedlings after 7 days
Description: as §1
Cotton seeds, treated with the active compound or compound combinations, solved in N-methyl-2-pyrrolidon and diluted with water to the desired dosages, were sown in 6*6 cm pots containing 4 cm of a 1:1 mix of steamed field soil and sand.
Perlite was incubated with mycelium fragments of Pythium ultimum. 1 ml of infected perlite was scattered between the treated cotton seeds. Seeds were then covered by light expanded clay aggregate. Pots were incubated in the greenhouse 7 days at 20° C. and 80% relative humidity.
(§2) Assessment consisted of counting of emerged seedlings. 0% means an efficacy which corresponds to that of the control, while an efficacy of 100% means that all seedlings have emerged.

Pythium irregulare = experiment: Pythium test (corn)/seed treatment; assay type: in vivo; conditions: 10 g/dt seed of active ingredient, emerged seedlings after 7 days at 10° C. then 14 days at 20° C.
Description: as §1
Corn seeds, treated with the active compound or compound combinations, solved in N-methyl-2-pyrrolidon and diluted with water to the desired dosages, were sown in 6*6 cm pots containing 4 cm of a 1:1 mix of steamed field soil and sand.
Perlite was incubated with mycelium fragments of Pythium irregulare. 5 ml of infected perlite was scattered between the treated cotton seeds. Seeds were than covered by the 1:1 mix of steamed field soil and sand. Pots were incubated in the greenhouse 7 days at 10° C. and 80% relative humidity and then 14 days at 20° C. and 80% relative humidity.
as §2

[2] = pH 2.7
Phytophthora infestans [3] = assay type: in vivo; conditions: tomato plants, spray, 500 ppm, grading 5 days after contamination
Botrytis cinerea = experiment: In vivo test on Botrytis cinerea (grey mould); conditions: gherkin plants, spray, 500 ppm, grading 4/5 days after contamination
Description: The active ingredients tested are prepared by homogenization in a mixture of acetone/Tween/DMSO, then diluted with water to obtain the desired active material
Gherkin plants (Vert petit de Paris variety), sown on a 50/50 peat soil-pozzolana substrate in starter cups and grown at 18-20° C., are treated at the cotyledon Z11 stage by spraying with the active ingredient prepared as described above.
Plants, used as controls, are treated with an aqueous solution not containing the active material. After 24 hours, the plants are contaminated by spraying them with an aqueous suspension of cryopreserved Botrytis cinerea spores (50.000 spores per ml) on upper surface of the leaves. The spores are suspended in a nutrient solution composed of: • 10 g/L of PDB; • 50 g/L of D-fructose; • 2 g/L of NH4NO3; • 1 g/L of KH2PO4.
The contaminated cucumber plants are settled for 4/5 days in a climatic room at 17° C. (day/night) and at 80% relative humidity.
Grading is carried out 4/5 days after the contamination, in comparison with the control plants.
(§3) Under these conditions, good (at least 70%) or total protection is observed at a dose of 500 ppm with the following compounds: […]

Sphaerotheca fuliginea = experiment: In vivo test on Sphaerotheca fuliginea (cucurbits powdery mildew); conditions: gherkin plants, spray, 500 ppm, grading 12 days after contamination
Description: (§4) The active ingredients tested are prepared by homogenization in a mixture of acetone/tween/DMSO, then diluted with water to obtain the desired active material.
Gherkin plants (Vert petit de Paris variety) in starter cups, sown on a 50/50 peat soil-pozzolana substrate and grown at 20° C./23° C., are treated at the cotyledon Z10 stage by spraying with the aqueous suspension described above. Plants, used as controls, are treated with an aqueous solution not containing the active material.
After 24 hours, the plants are contaminated by spraying them with an aqueous suspension of Sphaerotheca fuliginea spores (100.000 spores per ml). The spores are collected from a contaminated plants. The contaminated gherkin plants are incubated at about 20° C./25° C. and at 60/70% relative humidity.
Grading (% of efficacy) is carried out 12 days after the contamination, in comparison with the control plants.
as §3

Uromyces appendiculatus = experiment: In vivo test on Uromyces appendiculatus (brown rust of bean); conditions: Saxa variety plants, spray, 500 ppm, grading 10 days after contamination
Description: as §4
Wheat plants (Saxa variety) sown on 50/50 peat soil-pozzolana substrate in starter cups and grown at 24° C., are treated at the 2-leaf stage (9 cm tall) by spraying with the aqueous suspension described above.
Plants, used as controls, are treated with an aqueous solution not containing the active material.
After 24 hours, the plants are contaminated by spraying the leaves with an aqueous suspension of Uromyces appendiculatus spores (150.000 spores per ml). The spores are collected from a 10-day-old contaminated […] and are suspended in water containing 2.5 ml/l of tween 80 10%. The contaminated […] are incubated for 24 hours at 20° C. and at 100% relative humidity, and then for 10 days at 20° C. and at 70% relative humidity. Grading is carried out 10 days after the contamination, in comparison with the control plants.
as §3

[4] = system: Mycosphaerella graminicola; experiment: In vivo test on Mycosphaerella graminicola (wheat leaf spot); conditions: wheat plants, spray, 500 ppm, grading 21 to 28 days after contamination
Summary of the method: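 Scipion wheat at 1-leaf stage was sprayed with compound suspension (acetone/tween/DMSO diluted in water), then inoculated 24 h later with spores (500.000/ml). Plants were held 72 h at 18° C and 100% RH, then 21 to 28 days at 90% RH. Efficacy was graded as % versus untreated controls.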

Puccinia recondita = experiment: In vivo test on Puccinia recondita (brown rust); conditions: wheat plants, spray, 500 ppm, grading 10 days after contamination
Summary of the method: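 Wheat (Scipion) at the 1-leaf stage sprayed with compound suspension (acetone/tween/DMSO diluted in water), then inoculated 24 h later with Puccinia recondita spores at 100.000 spores per ml. Plants were held 24 h at 20 °C/100% RH, then 10 days at 20 °C/70% RH; protection graded 10 days post-inoculation versus untreated controls.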

Pyricularia grisea = assay type: in vivo; conditions: rice plants, spray, 500 ppm, grading 6 days after contamination
[5] = Measurement of log P values by HPLC on reversed phase columns (EEC directive 79/831 Annex V.A8); conditions: pH 2.7
Alternaria brassicae = experiment: In vivo test on Alternaria brassicae (leaf spot of crucifers); conditions: radish plants, spray, 500 ppm, grading 6 to 7 days after contamination
Description: as §4
Radish plants (Pernot variety), sown on a 50/50 peat soil-pozzolana substrate in starter cups and grown at 18-20° C., are treated at the cotyledon stage by spraying with the active ingredient prepared as described above.
Plants, used as controls, are treated with the mixture of acetone/tween/water not containing the active material.
After 24 hours, the plants are contaminated by spraying them with an aqueous suspension of Alternaria brassicae spores (40,000 spores per cm^3). The spores are collected from a 12 to 13 days-old culture.
The contaminated radish plants are incubated for 6-7 days at about 18° C., under a humid atmosphere.
Grading is carried out 6 to 7 days after the contamination, in comparison with the control plants.
Under these conditions, good protection (at least 70%) is observed at a dose of 500 ppm with the following compounds: […]

CCCCCOC(=O)Nc1cccc(CO/N=C(/c2ccccc2)c2noc(=O)n2C)n1 [Example 2]
Eff. % (Phytophthora infestans [1]): 100% | Eff. % (Plasmopara viticola): 97% | Eff. % (Pythium aphanidermatum): 98% | Eff. % (Pythium ultimum): 89% | Eff. % (Pythium irregulare): 100% | LogP [2]: 4.44 [a]

C#CCCOC(=O)Nc1cccc(CO/N=C(/c2ccccc2)c2noc(=O)n2C)n1 [Example 3]
Eff. % (Phytophthora infestans [1]): 98% | Eff. % (Plasmopara viticola): 100% | Eff. % (Pythium aphanidermatum): 95% | Eff. % (Pythium ultimum): 93% | Eff. % (Pythium irregulare): 100% | LogP [2]: 3.27 [a]

CCCCC(=O)Nc1cccc(CO/N=C(/c2ccccc2)c2noc(=O)n2C)n1 [Example 15]
Eff. % (Phytophthora infestans [1]): 98% | Eff. % (Plasmopara viticola): 97% | Eff. % (Pythium aphanidermatum): 98% | Eff. % (Pythium ultimum): 96% | Eff. % (Pythium irregulare): 100% | Eff. % (Phytophthora infestans [3]): 99% | LogP [2]: 3.51 [a]

Cn1c(/C(=N\OCc2cccc(N)n2)c2cccc(F)c2)noc1=O [Example 83]
Eff. % (Phytophthora infestans [3]): 100% | Eff. % (Botrytis cinerea): 73% | Eff. % (Sphaerotheca fuliginea): 85% | Eff. % (Uromyces appendiculatus): 75% | Eff. % [4]: 93% | Eff. % (Puccinia recondita): 89% | LogP [2]: 1.34 [a]

CC(C)CCCC(=O)Nc1cccc(CO/N=C(/c2ccccc2)c2noc(=O)n2C)n1 [Example 95]
Eff. % (Plasmopara viticola): 100% | Eff. % (Phytophthora infestans [3]): 100% | Eff. % (Pyricularia grisea): 70% | LogP [2]: 4.25 [a]

CCC(CC)C(=O)Nc1cccc(CO/N=C(/c2ccccc2)c2noc(=O)n2C)n1 [Example 124]
Eff. % (Phytophthora infestans [3]): 99% | Eff. % (Sphaerotheca fuliginea): 80% | LogP [2]: 3.71 [a]

C=CCCCCC(=O)Nc1cccc(CO/N=C(/c2ccccc2)c2noc(=O)n2C)n1 [Example 167]
Eff. % (Plasmopara viticola): 86% | Eff. % (Phytophthora infestans [3]): 98% | Eff. % (Pyricularia grisea): 96% | LogP [2]: 3.89 [a]

Cn1c(/C(=N\OCc2cccc(NC(=O)OCc3ccccc3)n2)c2ccccc2)noc1=O [Example 168]
Eff. % (Phytophthora infestans [1]): 92% | Eff. % (Plasmopara viticola): 100% | Eff. % (Pythium aphanidermatum): 92% | Eff. % (Pythium ultimum): 70% | Eff. % (Pythium irregulare): 100% | Eff. % (Phytophthora infestans [3]): 99% | LogP [2]: 3.99 [a]

COc1ccccc1OCC(=O)Nc1nc(CO/N=C(/c2ccccc2)c2noc(=O)n2C)cs1 [Example 171]
Eff. % (Phytophthora infestans [3]): 100% | Eff. % (Uromyces appendiculatus): 82% | Eff. % (Pyricularia grisea): 80% | LogP [2]: 3.55 [a]

COc1ccc(OC)c(CC(=O)Nc2cccc(CO/N=C(/c3ccccc3)c3noc(=O)n3C)n2)c1 [Example 190]
Eff. % (Phytophthora infestans [3]): 100% | Eff. % (Sphaerotheca fuliginea): 98% | Eff. % (Uromyces appendiculatus): 83% | Eff. % [4]: 100% | Eff. % (Puccinia recondita): 94% | LogP [2]: 3.6 [a]

CCN(CC)c1cccc(CO/N=C(/c2ccccc2)c2noc(=O)n2C)n1 [Example 197, 3-[(Z)-({[6-(diethylamino)pyridin-2-yl]methoxy}imino)(phenyl)methyl]-4-methyl-1,2,4-oxadiazol-5(4H)-one]
Eff. % (Phytophthora infestans [3]): 100% | Eff. % (Sphaerotheca fuliginea): 80% | Eff. % (Uromyces appendiculatus): 89% | Eff. % [4]: 96% | Eff. % (Puccinia recondita): 94% | chromatographic logP [5]: 2.63

CCOCC(C)OC(=O)Nc1cccc(CO/N=C(/c2ccccc2)c2noc(=O)n2C)n1 (stereo not drawn) [Example 199]
Eff. % (Phytophthora infestans [1]): 97% | Eff. % (Plasmopara viticola): 100% | Eff. % (Pythium aphanidermatum): 99% | Eff. % (Pythium ultimum): 96% | Eff. % (Pythium irregulare): 100% | LogP [2]: 3.53 [a]

CCn1c(/C(=N\OCc2cccc(N)n2)c2ccccc2)noc1=O [Example 209]
Eff. % (Phytophthora infestans [3]): 84% | Eff. % (Sphaerotheca fuliginea): 75% | Eff. % (Puccinia recondita): 88% | Eff. % (Alternaria brassicae): 70% | LogP [2]: 1.42 [a]

CCCCCC(=O)Nc1cccc(CO/N=C(/c2cccc(OC)c2)c2noc(=O)n2C)n1 [Example 211]
Eff. % (Phytophthora infestans [3]): 91% | Eff. % (Botrytis cinerea): 84% | Eff. % (Sphaerotheca fuliginea): 72% | Eff. % (Puccinia recondita): 71% | LogP [2]: 3.92 [a]

C#CCC(C)OC(=O)Nc1cccc(CO/N=C(/c2ccccc2)c2noc(=O)n2C)n1 (stereo not drawn) [Example 226]
Eff. % (Phytophthora infestans [1]): 92% | Eff. % (Plasmopara viticola): 100% | Eff. % (Pythium aphanidermatum): 99% | Eff. % (Pythium ultimum): 93% | Eff. % (Pythium irregulare): 90% | Eff. % (Phytophthora infestans [3]): 100% | LogP [2]: 3.57 [a]

C#CCOC(=O)Nc1cccc(CO/N=C(/c2ccccc2)c2noc(=O)n2C)n1 [Example 342]
Eff. % (Phytophthora infestans [1]): 92% | Eff. % (Plasmopara viticola): 100% | Eff. % (Pythium aphanidermatum): 100% | Eff. % (Pythium ultimum): 100% | Eff. % (Pythium irregulare): 100% | Eff. % (Phytophthora infestans [3]): 99% | LogP [2]: 3.13 [a]
